ChEMBL document CHEMBL3885881, “DrugMatrix”

Species: Rattus norvegicus
Assay: DrugMatrix - Regimen: Daily Repeat
Assay type: toxicity, organism-based, Sprague-Dawley
Design: regimen Daily Repeat, gender Male, age 6-8 weeks
Details: in vivo, po, route oral GAVAGE, […]; for ABSOLUTE BASOPHIL / ABSOLUTE EOSINOPHIL / ABSOLUTE LYMPHOCYTE / ABSOLUTE MONOCYTE / ABSOLUTE SEGMENTED NEUTROPHIL / BASOPHIL / EOSINOPHIL / ERYTHROCYTE COUNT / HEMATOCRIT / HEMOGLOBIN / LEUKOCYTE COUNT / LYMPHOCYTE / MEAN CORPUSCULAR HEMOGLOBIN / MEAN CORPUSCULAR HEMOGLOBIN CONCENTRATION / MEAN CORPUSCULAR VOLUME / MONOCYTE / NEUTROPHIL / NUCLEATED RED BLOOD CELLS / PLATELET COUNT: tissue Blood; for ALANINE AMINOTRANSFERASE / ALBUMIN / ALKALINE PHOSPHATASE / ASPARTATE AMINOTRANSFERASE / BLOOD UREA NITROGEN / CARBON DIOXIDE / CHLORIDE / CHOLESTEROL / CREATINE PHOSPHOKINASE / CREATININE / GLUCOSE / LACTATE DEHYDROGENASE / LIPASE / PHOSPHORUS / POTASSIUM / SODIUM / TOTAL BILIRUBIN / TOTAL PROTEIN / URIC ACID: tissue Plasma
[1] = 0 mg/kg, 72 h, dose level Control, time 3 day
[2] = 0 mg/kg, 120 h, dose level Control, time 5 day
[3] = 30 mg/kg, 72 h, dose level Low, time 3 day

## CCCCC(=O)N(Cc1ccc(-c2ccccc2-c2nnn[nH]2)cc1)[C@H](C(=O)O)C(C)C
[1]
  ABSOLUTE BASOPHIL: 0 CELLS/uL
  ABSOLUTE EOSINOPHIL: 13.67 CELLS/uL
  ABSOLUTE LYMPHOCYTE: 10069.5 CELLS/uL
  ABSOLUTE MONOCYTE: 50 CELLS/uL
  ABSOLUTE SEGMENTED NEUTROPHIL: 516.83 CELLS/uL
  BASOPHIL: 0%
  EOSINOPHIL: 0.17%
  ERYTHROCYTE COUNT: 5.44 x10E6/uL
  HEMATOCRIT: 33.88%
  HEMOGLOBIN: 13.23 G/DL
  LEUKOCYTE COUNT: 10.65 x10E3/uL
  LYMPHOCYTE: 94.67%
  MEAN CORPUSCULAR HEMOGLOBIN: 24.37 pg
  MEAN CORPUSCULAR HEMOGLOBIN CONCENTRATION: 39.05 G/DL
  MEAN CORPUSCULAR VOLUME: 62.38 fL
  MONOCYTE: 0.67%
  NEUTROPHIL: 4.5%
  NUCLEATED RED BLOOD CELLS: 0.33 /100WBC
  PLATELET COUNT: 414.5 x10E3/uL
  ALANINE AMINOTRANSFERASE: 72 u/L
  ALBUMIN: 3.75 G/DL
  ALKALINE PHOSPHATASE: 375 u/L
  ASPARTATE AMINOTRANSFERASE: 87.5 u/L
  BLOOD UREA NITROGEN: 14 mg/dL
  CARBON DIOXIDE: 27.5 mmol/L
  CHLORIDE: 95.83 MEQ/L
  CHOLESTEROL: 68.5 mg/dL
  CREATINE PHOSPHOKINASE: 284.33 u/L
  CREATININE: 0.16 mg/dL
  GLUCOSE: 156.67 mg/dL
  LACTATE DEHYDROGENASE: 101.83 u/L
  LIPASE: 9.67 u/L
  PHOSPHORUS: 10.33 mg/dL
  POTASSIUM: 5.22 MEQ/L
  SODIUM: 137.67 MEQ/L
  TOTAL BILIRUBIN: 0.13 mg/dL
  TOTAL PROTEIN: 5.43 G/DL
  URIC ACID: 0.8 mg/dL
[2]
  ABSOLUTE BASOPHIL: 0 CELLS/uL
  ABSOLUTE EOSINOPHIL: 20.67 CELLS/uL
  ABSOLUTE LYMPHOCYTE: 11518.33 CELLS/uL
  ABSOLUTE MONOCYTE: 47 CELLS/uL
  ABSOLUTE SEGMENTED NEUTROPHIL: 614 CELLS/uL
  BASOPHIL: 0%
  EOSINOPHIL: 0.17%
  ERYTHROCYTE COUNT: 5.61 x10E6/uL
  HEMATOCRIT: 34.25%
  HEMOGLOBIN: 13.38 G/DL
  LEUKOCYTE COUNT: 12.2 x10E3/uL
  LYMPHOCYTE: 94.33%
  MEAN CORPUSCULAR HEMOGLOBIN: 23.83 pg
  MEAN CORPUSCULAR HEMOGLOBIN CONCENTRATION: 39.08 G/DL
  MEAN CORPUSCULAR VOLUME: 61.03 fL
  MONOCYTE: 0.33%
  NEUTROPHIL: 5.17%
  NUCLEATED RED BLOOD CELLS: 0 /100WBC
  PLATELET COUNT: 941.83 x10E3/uL
  ALANINE AMINOTRANSFERASE: 68.83 u/L
  ALBUMIN: 4.12 G/DL
  ALKALINE PHOSPHATASE: 492.67 u/L
  ASPARTATE AMINOTRANSFERASE: 83.33 u/L
  BLOOD UREA NITROGEN: 14 mg/dL
  CARBON DIOXIDE: 37 mmol/L
  CHLORIDE: 98.67 MEQ/L
  CHOLESTEROL: 56.5 mg/dL
  CREATINE PHOSPHOKINASE: 167.33 u/L
  CREATININE: 0.17 mg/dL
  GLUCOSE: 157.5 mg/dL
  LACTATE DEHYDROGENASE: 104.83 u/L
  LIPASE: 10 u/L
  PHOSPHORUS: 10.43 mg/dL
  POTASSIUM: 5.46 MEQ/L
  SODIUM: 143.87 MEQ/L
  TOTAL BILIRUBIN: 0.17 mg/dL
  TOTAL PROTEIN: 5.72 G/DL
  URIC ACID: 0.85 mg/dL
[3]
  ABSOLUTE BASOPHIL: 0 CELLS/uL
  ABSOLUTE EOSINOPHIL: 32 CELLS/uL
  ABSOLUTE LYMPHOCYTE: 7448.67 CELLS/uL
  ABSOLUTE MONOCYTE: 0 CELLS/uL
  ABSOLUTE SEGMENTED NEUTROPHIL: 586 CELLS/uL
  BASOPHIL: 0%
  EOSINOPHIL: 0.33%
  ERYTHROCYTE COUNT: 5.55 x10E6/uL
  HEMATOCRIT: 33.7%
  HEMOGLOBIN: 13.27 G/DL
  LEUKOCYTE COUNT: 8.07 x10E3/uL
  LYMPHOCYTE: 92.33%
  MEAN CORPUSCULAR HEMOGLOBIN: 23.9 pg
  MEAN CORPUSCULAR HEMOGLOBIN CONCENTRATION: 39.33 G/DL
  MEAN CORPUSCULAR VOLUME: 60.7 fL
  MONOCYTE: 0%
  NEUTROPHIL: 7.33%
  NUCLEATED RED BLOOD CELLS: 0.67 /100WBC
  PLATELET COUNT: 891 x10E3/uL
  ALANINE AMINOTRANSFERASE: 67.67 u/L
  ALBUMIN: 3.93 G/DL
  ALKALINE PHOSPHATASE: 446.33 u/L
  ASPARTATE AMINOTRANSFERASE: 94.33 u/L
  BLOOD UREA NITROGEN: 14.33 mg/dL
  CARBON DIOXIDE: 25 mmol/L
  CHLORIDE: 95.5 MEQ/L
  CHOLESTEROL: 77.67 mg/dL
  CREATINE PHOSPHOKINASE: 130 u/L
  CREATININE: 0.19 mg/dL
  GLUCOSE: 147 mg/dL
  LACTATE DEHYDROGENASE: 98 u/L
  LIPASE: 11.33 u/L
  PHOSPHORUS: 9.5 mg/dL
  POTASSIUM: 5.71 MEQ/L
  SODIUM: 138.1 MEQ/L
  TOTAL BILIRUBIN: 0.1 mg/dL
  TOTAL PROTEIN: 5.53 G/DL
  URIC ACID: 0.57 mg/dL
